Molecular target: T1, HAQ STING (THP-1 cells) (Homo sapiens, UniProt Q86WV6, G230A/R293Q/R71H)
T1 construct: THP1 cells constitutively express the HAQ variant of human STING; host or cells: THP-1
Assay: THP1 cellular assay (EC50)
Assay type: cell-based
Conditions: THP-1 cells (HAQ STING)

T1 sequence (Q86WV6 whole entry R71H/G230A/R293Q): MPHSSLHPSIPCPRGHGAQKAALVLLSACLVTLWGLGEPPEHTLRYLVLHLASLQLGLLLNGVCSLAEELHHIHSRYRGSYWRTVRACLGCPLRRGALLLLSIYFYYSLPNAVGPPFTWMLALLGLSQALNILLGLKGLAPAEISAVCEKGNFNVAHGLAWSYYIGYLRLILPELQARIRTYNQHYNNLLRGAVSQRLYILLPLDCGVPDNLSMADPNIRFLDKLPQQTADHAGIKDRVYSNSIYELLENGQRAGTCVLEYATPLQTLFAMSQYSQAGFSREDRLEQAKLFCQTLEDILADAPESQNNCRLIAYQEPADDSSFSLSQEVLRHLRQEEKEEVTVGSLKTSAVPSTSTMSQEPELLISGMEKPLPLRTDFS

For `O=C(NCc1ccco1)c1ccc2c(c1)N(Cc1c(F)cccc1Cl)C(=O)CS2` [Compound G10, 4-(2-Chloro-6-fluorobenzyl)-N-(furan-2-ylmethyl)-3-oxo-3,4-dihydro-2H-benzo[b][1,4]thiazine-6-carboxamide], the “THP-1 EC50” value was “Nil @ 30uM”.

From paper PMC7482845, “G10 is a direct activator of human STING” (PLoS ONE, 2020)
